Measurements as given in patent US20130029981A1, “COMPOUNDS, COMPOSITIONS, AND METHODS FOR CONTROLLING BIOFILMS” (Katholieke Universiteit Leuven, priority 2009, published 2013).
Read-outs that look alike come from different tables or passages of the source.

Experiments:
[1] = system: S. Typhimurium ATCC14028; test: Static peg assay for prevention of biofilm formation (Calgary device, crystal violet); assay type: cell-based, Salmonella Typhimurium
How it was run: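 Calgary 96-peg device, ca. 10^6 cells of ATCC14028 per well in TSB 1/20 for 24 h at 25° C (or 48 h at 16° C, medium and compound renewed at 24 h), or in CFA broth for 24 h at 37° C, static, with two-fold compound dilutions. Crystal violet stain, acetic acid extraction, OD570. IC50 from 2–3 independent experiments.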

[2] = system: Pseudomonas aeruginosa PA14; test: as above; assay type: cell-based; details: read-out: P. aeruginosa IC50 (biofilm formation)
Experimental: (§1) Evaluation of the biofilm inhibitory activity of some substituted 2-amino-1H-imidazoles of the invention was carried out by growing up biofilms of S. Typhimurium ATCC14028 or SL1344 or Pseudomonas aeruginosa PA14 in the presence of different concentrations (1/2 dilution series) of biofilm inhibitors, by using the Calgary biofilm device. After an incubation period of 24 hours at 25° C. or 37° C. or 48 hours at 16° C. the biofilms were visualized by crystal violet staining. In the next step the stain was extracted from the biofilm with 30% acetic acid. The absorbance of the resolubilized stain at 570 nm is a measure of the amount of biofilm formed.
The device used for Pseudomonas aeruginosa biofilm formation is the same platform carrying polystyrene pegs as described above for Salmonella Typhimurium.
Two-fold serial dilutions of the compounds in 100 μl liquid broth per well were prepared in the microtiter plate. Subsequently, an overnight culture of P. aeruginosa PA14 (grown up in TSB medium) was diluted 1:100 into liquid broth and 100 μl was added to each well of the microtiter plates, resulting in a total amount of 200 μl medium per well. The pegged lid was placed on the microtiter plate and the plate was incubated for 24 hours at 25° C., 30° C. or 37° C. without shaking. During this incubation period biofilms were formed on the surface of the pegs. The liquid broth used for the tests at 25° C. was TSB 1/20. The tests at 37° C. were performed in CFA and/or LBNS broth. During incubation at 30° C. and 37° C. the plates were placed in a humidity controlled container to prevent evaporation of the growth medium. Quantification of biofilm formation was performed similarly as described previously for the S. Typhimurium biofilm assays.
as §1, with “imidazo[1,2-a]pyrimidinium bromide salts” for “2-amino-1H-imidazoles”
as §1, with “substituted imidazo[1,2-a]-pyrimidinium bromide and perchlorate salts produced according to examples 3 and 5” for “substituted 2-amino-1H-imidazoles of the invention”, “C.” for “C. or 37° C. or 48 hours at 16° C.”, “nm was taken as” for “nm is”

[3] = S. Typhimurium ATCC 14028, 25° C., read-out: S. Typhimurium IC50 (biofilm formation)
[4] = Table 21, S. Typhimurium ATCC14028, 25° C., read-out: S. Typhimurium IC50 (biofilm formation)
[5] = Table 21, P. aeruginosa PA14, 25° C.
[6] = 25° C., Table 22, read-out: S. Typhimurium IC50 (biofilm formation)

Structure (SMILES): CNc1ncc(-c2ccc(F)cc2)[nH]1 [Compound 97]
- IC50 [1, 3]: 102 µM
- IC50 ([2]; P. aeruginosa PA14, 25° C.): 25.2 µM

Structure (SMILES): CCCCNc1ncc(-c2ccc(F)cc2)[nH]1 [Compound 98]
- IC50 [1, 3]: 15.5 µM
- IC50 ([2]; P. aeruginosa PA14, 25° C.): 10.8 µM

Structure (SMILES): CCCCCCNc1ncc(-c2ccc(F)cc2)[nH]1 [Compound 99]
- IC50 [1, 3]: > 400 µM
- IC50 ([2]; P. aeruginosa PA14, 25° C.): ~12.5 µM

Structure (SMILES): CCCCCCCCNc1ncc(-c2ccc(F)cc2)[nH]1 [Compound 100]
- IC50 [1, 3]: > 400 µM
- IC50 ([2]; P. aeruginosa PA14, 25° C.): ~3.1 µM

Structure (SMILES): Nc1ncc(-c2ccc(Br)cc2)[nH]1 [Compound 101]
- IC50 [1, 3]: 47.9 µM
- IC50 ([2]; P. aeruginosa PA14, 25° C.): 3.2 µM

Structure (SMILES): CCCCNc1ncc(-c2ccc(Br)cc2)[nH]1 [Compound 102]
- IC50 [1, 3]: 7.1 µM
- IC50 ([2]; P. aeruginosa PA14, 25° C.): 9.8 µM

Structure (SMILES): CC(C)CNc1ncc(-c2ccc(Br)cc2)[nH]1 [Compound 103]
- IC50 [1, 3]: 2.9 µM
- IC50 ([2]; P. aeruginosa PA14, 25° C.): 1.2 µM

Structure (SMILES): CCCCCNc1ncc(-c2ccc(Br)cc2)[nH]1 [Compound 104]
- IC50 [1, 3]: 3.1 µM
- IC50 ([2]; P. aeruginosa PA14, 25° C.): 10.2 µM

Structure (SMILES): CCCCCCCCNc1ncc(-c2ccc(Br)cc2)[nH]1 [Compound 105]
- IC50 [1, 3]: 1.9 µM
- IC50 ([2]; P. aeruginosa PA14, 25° C.): > 800 µM

Structure (SMILES): COc1ccc(-c2cnc(N)[nH]2)cc1 [Compound 106]
- IC50 [1, 3]: 120 µM
- IC50 ([2]; P. aeruginosa PA14, 25° C.): 186 µM

Structure (SMILES): CCCCNc1ncc(-c2ccc(OC)cc2)[nH]1 [Compound 107]
- IC50 [1, 3]: 52.6 µM
- IC50 ([2]; P. aeruginosa PA14, 25° C.): 46.3 µM

Structure (SMILES): CCCCCCCCNc1ncc(-c2ccc(OC)cc2)[nH]1 [Compound 108]
- IC50 [1, 3]: ~400 µM
- IC50 ([2]; P. aeruginosa PA14, 25° C.): > 800 µM

Structure (SMILES): CCCNc1ncc(-c2ccc(Cl)c(Cl)c2)[nH]1 [Compound 109]
- IC50 [1, 3]: 10.9 µM
- IC50 ([2]; P. aeruginosa PA14, 25° C.): 27.7 µM

Structure (SMILES): CCCCCCCCNc1ncc(-c2ccc(Cl)c(Cl)c2)[nH]1 [Compound 111]
- IC50 [1, 3]: 118 µM
- IC50 ([2]; P. aeruginosa PA14, 25° C.): > 800 µM

Structure (SMILES): CS(=O)(=O)c1ccc(-c2cnc(N)[nH]2)cc1 [Compound 115]
- IC50 [1, 3]: > 800 µM
- IC50 ([2]; P. aeruginosa PA14, 25° C.): > 800 µM

Structure (SMILES): CCCCCCCCNc1ncc(-c2ccc(S(C)(=O)=O)cc2)[nH]1 [Compound 116]
- IC50 [1, 3]: 41.8 µM
- IC50 ([2]; P. aeruginosa PA14, 25° C.): ~3.1 µM

Structure (SMILES): Clc1ccc(-c2cnc(NC3CCCC3)[nH]2)cc1 [Compound 118]
- IC50 [1, 4]: 4.4 µM
- IC50 [2, 5]: 13.5 µM

Structure (SMILES): O=[N+]([O-])c1ccc(-c2cnc(NC3CCCC3)[nH]2)cc1 [Compound 119]
- IC50 [1, 4]: 11.8 µM
- IC50 [2, 5]: 20.2 µM

Structure (SMILES): Brc1ccc(-c2cnc(NC3CCCC3)[nH]2)cc1 [Compound 120]
- IC50 [1, 4]: 12.1 µM
- IC50 [2, 5]: 7.2 µM

Structure (SMILES): Clc1ccc(-c2cnc(NC3CCCC3)[nH]2)cc1Cl [Compound 121]
- IC50 [1, 4]: 5.7 µM
- IC50 [2, 5]: 7.9 µM

Structure (SMILES): Clc1ccc(-c2cnc(NC3CCCCC3)[nH]2)cc1 [Compound 122]
- IC50 [1, 4]: > 800 µM
- IC50 [2, 5]: ~25 µM

Structure (SMILES): O=[N+]([O-])c1ccc(-c2cnc(NC3CCCCC3)[nH]2)cc1 [Compound 123]
- IC50 [1, 4]: 36.7 µM
- IC50 [2, 5]: ~25 µM

Structure (SMILES): O=[N+]([O-])c1cccc(-c2cnc(NC3CCCCC3)[nH]2)c1 [Compound 124]
- IC50 [1, 4]: 630 µM
- IC50 [2, 5]: 4.4 µM

Structure (SMILES): COc1ccc(-c2cnc(NC3CCCCC3)[nH]2)cc1 [Compound 125]
- IC50 [1, 4]: ~378 µM
- IC50 [2, 5]: 54.8 µM

Structure (SMILES): CSc1ccc(-c2cnc(NC3CCCCC3)[nH]2)cc1 [Compound 126]
- IC50 [1, 4]: 191 µM
- IC50 [2, 5]: 15.8 µM

Structure (SMILES): COc1ccc(CNc2ncc(-c3ccc([N+](=O)[O-])cc3)[nH]2)cc1 [Compound 128]
- IC50 [1, 6]: > 800 µM
- IC50 ([2]; 25° C., Table 22): > 800 µM

Structure (SMILES): COc1cccc(CCNc2ncc(-c3ccc([N+](=O)[O-])cc3)[nH]2)c1 [Compound 129]
- IC50 [1, 6]: 19.1 µM
- IC50 ([1]; S. Typhimurium ATCC 14028, 25° C., read-out: IC50 for biofilm inhibition (25° C.)): 15 µM
- IC50 ([2]; 25° C., Table 22): 3.7 µM
